This is an account of results in patent US10869474B2, “Fungicidal compositions” (UNIVERSITÄT BASEL, priority 2016, dated 2020).

Assay [1] has as its system Plasmopara viticola. Kind of assay: In vitro bioassay in 96-well plates, minimal inhibitory concentration (MIC100). It is filed as cell-based. The settings on record: for MIC: Plasmopara viticola, read-out: Minimal inhibitory concentration (MIC100) against P. viticola.
Assay [2] deals with Venturia inaequalis. The description is as above. It is filed as cell-based. The settings on record: for MIC: Venturia inaequalis, 48 h, read-out: Minimal inhibitory concentration (MIC100) against V. inaequalis.
The test system of assay [3] is Phytophthora infestans. Nature of the assay: microbe, parasite or virus in culture. It is filed as cell-based. As to conditions: complete inhibition of germination, assessed after one day, Table 2 values are means of N independent experiments; for MIC: Phytophthora infestans, 24 h, read-out: Minimal inhibitory concentration (MIC100) against P. infestans, in vitro; for Minimal inhibitory concentration (MIC100) against P. infestans: in vitro.

For assay [4], the system named is Plasmopara viticola. Kind of assay: Plant-pathogen bioassay on grapevine seedlings under semi-controlled conditions. It is filed as in vivo. As to conditions: grapevine cv. Chasselas seedlings, n = 6, Table 5.
Assay [5] has as its system Venturia inaequalis. Nature of the assay: Plant-pathogen bioassay on apple seedlings under semi-controlled conditions. It is filed as in vivo. As to conditions: apple cv. Jonagold seedlings, n = 6, Table 7.
Where [6] appears, read: in vitro, complete inhibition of zoospore activity, assessed after 2-3 h, Table 2 values are means of N independent experiments.
The mark [7] stands for this setting: in vitro, complete inhibition of germination, assessed after two days, Table 2 values are means of N independent experiments.

Values after ≈ are worked out from the molar mass of the structure shown. Read-outs that look alike come from different tables or passages of the source. A value given as a limit tells only on which side of the number the result lay.

In the case of `O=C(/C=C/c1ccccc1)OCc1ccccc1` [BC, benzyl cinnamate], the MIC in assay [1] was 8 µg/mL (≈ 33.6 µM); in assay [2], greater than 500 µg/mL; in assay [3], 500 µg/mL (≈ 2100 µM).

As to `COc1cc(/C=C/COC(=O)c2ccccc2)ccc1O` [CB, coniferyl benzoate], the MIC in assay [1] (setting [6]) was in the range of 8 to 32 µg/mL (≈ 28.1 to 113 µM). Moreover, the “Minimal inhibitory concentration (MIC100) against P. viticola” value in assay [1] (setting [6]) came out at 12 µg/mL (≈ 42.2 µM). In addition, the “Minimal inhibitory concentration (MIC100) against V. inaequalis” value in assay [2] (setting [7]) was 35 µg/mL (≈ 123 µM). Besides, the “Minimal inhibitory concentration (MIC100) against P. infestans” value in assay [3] stood at 21 µg/mL (≈ 73.9 µM). Further, the “Efficacy against P. viticola, mean ± SD” value worked out at 85 ± 14% in assay [4] (pure compound 0.25 mg ml^−1), 77 ± 50% in assay [4] (pure compound 0.5 mg ml^−1) and 99 ± 1% in assay [4] (pure compound 1 mg ml^−1). Also, the “Efficacy Mean ± SD” value in assay [5] (CB 0.1 mg ml^−1) is given as 4 ± 53%; in assay [5] (CB 1 mg ml^−1), 69 ± 12%; in assay [5] (CB 1 mg ml^−1, listed as coniferyl benzoate), 70%.

On to `O=C(/C=C/c1ccccc1)OC/C=C/c1ccc(O)cc1` [CC, p-coumaryl cinnamate], for which the “Minimal inhibitory concentration (MIC100) against P. viticola” value in assay [1] (setting [6]) was 38 µg/mL (≈ 136 µM). Besides, the MIC in assay [2] (setting [7]) and in assay [3] was 16 to 64 µg/mL (≈ 57.1 to 228 µM) in each case. The “Minimal inhibitory concentration (MIC100) against V. inaequalis” value in assay [2] (setting [7]) was 32 µg/mL (≈ 114 µM). Moreover, in assay [3], the “Minimal inhibitory concentration (MIC100) against P. infestans” value was found to be 25 µg/mL (≈ 89.2 µM). Further, the results for the “Efficacy against P. viticola, mean ± SD” value in assay [4] (pure compound 0.25 mg ml^−1), in assay [4] (pure compound 0.5 mg ml^−1) and in assay [4] (pure compound 1 mg ml^−1) were 80 ± 16%, 95 ± 6% and 98 ± 1%, respectively.
